Tests used:
[1] = target: T1, Lipoxygenase (Homo sapiens, UniProt P09917); assay: Inhibition of lipoxygenase activity by human polymorphonuclear leukocytes (PMNs); assay type: cell-based; details: test compound 1×10^-4 m, 37° C., 5 minutes, arachidonic acid 1-C14 1×10^-4 M; for Percent Inhibition Lipoxygenese Act. 5-HETE: product 5-hydroxy-7,9,11,14-eicosatetraenoic acid; for Percent Inhibition Lipoxygenese Act. LTB4: product Leukotriene B4
T1 construct: The PMNs were prepared from 200-300 ml of heparinized blood of healthy donors; endogenous in cells; host or cells: human polymorphonuclear leukocytes from heparinized blood of healthy donors (intact cells)
T1 sequence (P09917 1-674): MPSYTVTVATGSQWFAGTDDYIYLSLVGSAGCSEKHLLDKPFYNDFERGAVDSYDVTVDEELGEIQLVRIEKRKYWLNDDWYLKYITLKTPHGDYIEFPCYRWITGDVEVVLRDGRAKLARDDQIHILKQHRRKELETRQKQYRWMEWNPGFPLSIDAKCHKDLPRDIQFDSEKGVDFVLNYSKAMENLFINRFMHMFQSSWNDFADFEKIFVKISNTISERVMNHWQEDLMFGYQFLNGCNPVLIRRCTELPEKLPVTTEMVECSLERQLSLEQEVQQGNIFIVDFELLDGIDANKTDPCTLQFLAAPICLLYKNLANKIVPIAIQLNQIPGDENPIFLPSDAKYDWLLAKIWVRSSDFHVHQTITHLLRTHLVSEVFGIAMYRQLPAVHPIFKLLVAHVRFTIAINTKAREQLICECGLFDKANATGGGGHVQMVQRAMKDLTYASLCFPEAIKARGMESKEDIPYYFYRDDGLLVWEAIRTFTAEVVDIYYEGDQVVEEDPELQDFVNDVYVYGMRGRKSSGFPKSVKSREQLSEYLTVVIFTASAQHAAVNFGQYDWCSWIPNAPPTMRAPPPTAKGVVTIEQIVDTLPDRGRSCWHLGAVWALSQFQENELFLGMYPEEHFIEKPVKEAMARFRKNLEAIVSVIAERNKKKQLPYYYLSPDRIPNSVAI
Description: (§1) Assay for Inhibition of Lipoxygenase Activity By Human Polymorphonuclear Leukocytes (PMNs)
(§2) 1. Preparation of the cells:
(§3) The PMNs were prepared from 200-300 ml of heparinized blood of healthy donors not receiving any medication for at least 7 days using Ficoll-Hypaque gradients. In general, PMNs were greater than 98% pure and their viability was assessed by dye-exclusion to be better than 95%. The cells were suspended in phosphate buffered saline containing 1.0 mM CaCl2 (PH 7.4) and 0.1 ovalbumin, and used within 30 minutes.
Incubations were carried out at 37° C. for 5 minutes in a total volume of 0.2 ml. Arachidonic acid 1-C^14 (1×10^-4 M unless otherwise indicated, and approximately 300,000 cpm) was added to a suspension of cells (ca 5×10^6) to initiate the reaction. Prior to the addition of above substrate, the test substances were added to the cells at appropriate concentrations and pre-incubated at 37° C. for 5 minutes. In general, stock solutions of test substances were prepared in ethanol (or other appropriate solvents) and diluted with either incubation buffer or water. […] Boiled enzyme blanks and controls containing no test compound were always included. The incubations were terminated by the addition of 0.6 ml of methanol, vortexed and kept on ice for 30 minutes. An internal standard (5-hydroxy-7,9,11,14-eicosatetraenoic acid methyl ester) and 1.6 ml of deionized water was added, vortexed, centrifuged, supernatants decanted and kept in the freezer overnight. Extraction and purification of the arachidonic acid and lipoxygenase products were carried out using "Baker" disposable C18 extraction columns (1 ml capacity). The columns were prewashed with methanol (2.0 ml) followed by deionized water (2 ml). After most of the solvent was removed, 2.0 ml of the supernatant was applied to the extraction column and the solvent was allowed to flow through. The column was then washed with 5 ml of deionized water and the eludate was discarded. The column was then eluted with 2.0 ml of methanol and the eludate was forced through by N2, collected and the solvent removed in a vacuum oven overnight. The residue was carefully dissolved in […] of the mobile phase (methanol 75:H2 O 25:acetic acid 0.01) and a 10 microliter aliquot counted to estimate the recoveries. An aliquot of an extract from a control tube was injected into a Waters μBondpack C-18 reverse phase column and the retention times of cycloxygenase and lipoxygenase products determined both by OD measurement at 244 nM and by collecting 1 min. fractions and determining radioactivity. Based on this information, programmed collection of fractions (total of 6) using a fraction collector was made with each of the extracts injected into the column by an autoinjector (WISP) and the fractions counted for radioactivity in a Packard Liquid Scintillation Spectrometer.
Using this procedure the following compounds were tested at a concentration of 1×10^-4 m and found to have the denoted lipoxygenase and cycloxygenase activity: […]

[2] = target: T2, Cyclooxygenase (Homo sapiens, UniProt P23219); assay: Inhibition of cyclooxygenase activity in the human PMN arachidonic acid incubation; assay type: cell-based; details: test compound 1×10^-4 m; human PMNs, 37° C., 5 minutes; arachidonic acid 1-C14 1×10^-4 M
T2 construct: The PMNs were prepared from 200-300 ml of heparinized blood of healthy donors; endogenous in cells; host or cells: human polymorphonuclear leukocytes from heparinized blood of healthy donors (intact cells, more than 98% pure)
T2 sequence (P23219 24-599): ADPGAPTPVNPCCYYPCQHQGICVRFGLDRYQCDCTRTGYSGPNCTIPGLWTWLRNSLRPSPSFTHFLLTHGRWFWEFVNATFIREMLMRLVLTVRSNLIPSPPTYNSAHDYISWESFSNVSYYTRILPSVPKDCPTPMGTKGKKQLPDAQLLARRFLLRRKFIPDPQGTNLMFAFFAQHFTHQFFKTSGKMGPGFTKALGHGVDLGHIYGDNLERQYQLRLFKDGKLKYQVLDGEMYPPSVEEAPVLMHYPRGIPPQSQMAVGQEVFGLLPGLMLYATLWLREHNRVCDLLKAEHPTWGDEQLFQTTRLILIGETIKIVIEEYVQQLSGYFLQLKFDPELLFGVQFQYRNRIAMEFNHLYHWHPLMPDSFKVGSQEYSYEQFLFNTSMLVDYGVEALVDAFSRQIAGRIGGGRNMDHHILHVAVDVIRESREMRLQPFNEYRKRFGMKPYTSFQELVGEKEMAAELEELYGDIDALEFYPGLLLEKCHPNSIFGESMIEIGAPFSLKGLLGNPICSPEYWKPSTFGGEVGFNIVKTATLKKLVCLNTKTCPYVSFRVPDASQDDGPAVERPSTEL
Description: as §1, §2, §3
Incubations were carried out at 37° C. for 5 minutes in a total volume of 0.2 ml. Arachidonic acid 1-C^14 (1×10^-4 M unless otherwise indicated, and approximately 300,000 cpm) was added to a suspension of cells (ca 5×10^6) to initiate the reaction. Prior to the addition of above substrate, the test substances were added to the cells at appropriate concentrations and pre-incubated at 37° C. for 5 minutes. In general, stock solutions of test substances were prepared in ethanol (or other appropriate solvents) and diluted with either incubation buffer or water. […] Boiled enzyme blanks and controls containing no test compound were always included. The incubations were terminated by the addition of 0.6 ml of methanol, vortexed and kept on ice for 30 minutes. […] The residue was carefully dissolved in […] of the mobile phase (methanol 75:H2 O 25:acetic acid 0.01) and a 10 microliter aliquot counted to estimate the recoveries. An aliquot of an extract from a control tube was injected into a Waters μBondpack C-18 reverse phase column and the retention times of cycloxygenase and lipoxygenase products determined both by OD measurement at 244 nM and by collecting 1 min. fractions and determining radioactivity. Based on this information, programmed collection of fractions (total of 6) using a fraction collector was made with each of the extracts injected into the column by an autoinjector (WISP) and the fractions counted for radioactivity in a Packard Liquid Scintillation Spectrometer. […]

Row | Percent Inhibition Lipoxygenese Act. 5-HETE [1] | Percent Inhibition Lipoxygenese Act. LTB4 [1] | Percent Inhibition Cyclooxygenese Act. Total "PGs" [2] | Compound
1 | 9% | 20% | 9% | CCCCC/C=C\C/C=C\C/C=C\CC=C=CCCC(=O)O [4,5,8Z,11Z,14Z-eicosatetraenoic acid]
2 | 42% | 47% | 7% | CCCCCCCCCCC/C=C\CC=C=CCCC(=O)O [4,5,8Z-eicosatrienoic acid]
3 | 46% | 37% | 22% | CCCCCCCCCCCSCC=C=CCCC(=O)O [8-thianonadeca-4,5-dienoic acid]
